Measurements: patent US20030104507A1, “Method for detection of ATP” (priority 2001, published 2003)

Columns and labels:
Jurkat cells = assay: Effect of NaF on Jurkat cell luminescence; type: cell-based
Text: In some cells, such as lymphoid cells (e.g., Jurkat), an increase in luminescence over time in the presence of the reagent composition solution is observed. While the underlying mechanism of this increase in luminescence is not known, it is postulated that it results from the functioning of ATP-generating enzymes in this cell. The activity of such enzymes, if left unchecked, will result in an over-estimation of ATP in a sample at the time of the assay. This experiment was designed to test the effects of sodium fluoride on luminescence when using lymphoid cells.
Jurkat cells (ATCC, CRL-1990) were grown in 5% CO2/95% air, 100% humidity at 37° C. and maintained in RPMI media (Sigma, R-8005) containing 10% FBS (Hyclone #SH30070), 1X non-essential amino acids (Hyclone SH30238) and 1 mM sodium pyruvate (Hyclone #SH30239). Cells were plated at 0, 12500, 25000, and 50000 cells/well in 100 μl of media in a 96-well microtiter luminometer plate. Quadruplicate replicates were prepared. To each of these wells was added reagent composition (reagent composition=40 mM Citrate buffer (pH 6.0), 110 mM MES buffer (pH 6.0), 0.2 mM EDTA, 0.2% Gelatin, 100 μg/ml Luciferase (LucPpe2m146, diluted from 37.8 mg/ml stock solution), 100 μM luciferin, 300 mM NaCl, 20 mM MgSO4, 0.05% Mazu DF-204, 0.6% DTAB). In addition, all but the “no KPO4” control sample contained 60 mM KPO4 buffer (pH 6.0). Various concentrations of NaF were then added to the above solution to final concentrations of 0, 1.0, 2.0, 4.0, 10.0 mM; one condition had 10.0 mM NaF but without KPO4.
Total reaction volume per well was 200 μl, consisting of 100 μl cells plus media and 100 μl reagent composition containing KPO4 and/or NaF. The light output was taken at various times on a Dynex microtiter plate luminometer at a 0.5 second read time. The resulting average rlus from quadruplicate wells and calculated signal stabilities as measured by their half-life values are reported in Table S.

[1] = Precipitation of detergent in reagent composition samples; type: physicochemical

[F-].[Na+] [NaF, sodium fluoride] gave an Average rlu (Jurkat cells; 1.0 mM NaF, 12500 cells/well, 0 min) of 358.61 rlu, an Average rlu (Jurkat cells; 1.0 mM NaF, 12500 cells/well, 30 min) of 341.31 rlu and an Average rlu (Jurkat cells; 1.0 mM NaF, 12500 cells/well, 85 min) of 331.08 rlu. The Average rlu (Jurkat cells; 1.0 mM NaF, 12500 cells/well, 130 min) was 323.54 rlu, the Average rlu (Jurkat cells; 1.0 mM NaF, 12500 cells/well, 220 min) was 271.89 rlu and the Average rlu (Jurkat cells; 1.0 mM NaF, 12500 cells/well, 255 min) was 257.06 rlu. For the same compound, the Average rlu (Jurkat cells; 1.0 mM NaF, 12500 cells/well, 285 min) was 247.61 rlu, the Average rlu (Jurkat cells; 1.0 mM NaF, 25000 cells/well, 0 min) was 691.68 rlu and the Average rlu (Jurkat cells; 1.0 mM NaF, 25000 cells/well, 30 min) was 640.53 rlu. For the same compound, the Average rlu (Jurkat cells; 1.0 mM NaF, 25000 cells/well, 85 min) was 611.45 rlu, the Average rlu (Jurkat cells; 1.0 mM NaF, 25000 cells/well, 130 min) was 596.87 rlu and the Average rlu (Jurkat cells; 1.0 mM NaF, 25000 cells/well, 220 min) was 495.89 rlu. It also gave an Average rlu (Jurkat cells; 1.0 mM NaF, 25000 cells/well, 255 min) of 463.32 rlu, an Average rlu (Jurkat cells; 1.0 mM NaF, 25000 cells/well, 285 min) of 446.32 rlu and an Average rlu (Jurkat cells; 1.0 mM NaF, 50000 cells/well, 0 min) of 1380.16 rlu. The Average rlu (Jurkat cells; 1.0 mM NaF, 50000 cells/well, 30 min) was 1268.49 rlu, the Average rlu (Jurkat cells; 1.0 mM NaF, 50000 cells/well, 85 min) was 1185.73 rlu and the Average rlu (Jurkat cells; 1.0 mM NaF, 50000 cells/well, 130 min) was 1147.33 rlu. The Average rlu (Jurkat cells; 1.0 mM NaF, 50000 cells/well, 220 min) was 936.82 rlu, the Average rlu (Jurkat cells; 1.0 mM NaF, 50000 cells/well, 255 min) was 862.31 rlu and the Average rlu (Jurkat cells; 1.0 mM NaF, 50000 cells/well, 285 min) was 832.15 rlu. The Average rlu (Jurkat cells; 2.0 mM NaF, 12500 cells/well, 0 min) was 348.16 rlu, the Average rlu (Jurkat cells; 2.0 mM NaF, 12500 cells/well, 30 min) was 333.48 rlu and the Average rlu (Jurkat cells; 2.0 mM NaF, 12500 cells/well, 85 min) was 323.75 rlu. It also gave an Average rlu (Jurkat cells; 2.0 mM NaF, 12500 cells/well, 130 min) of 317.48 rlu, an Average rlu (Jurkat cells; 2.0 mM NaF, 12500 cells/well, 220 min) of 258.43 rlu and an Average rlu (Jurkat cells; 2.0 mM NaF, 12500 cells/well, 255 min) of 251.90 rlu. It also gave an Average rlu (Jurkat cells; 2.0 mM NaF, 12500 cells/well, 285 min) of 239.40 rlu, an Average rlu (Jurkat cells; 2.0 mM NaF, 25000 cells/well, 0 min) of 679.02 rlu and an Average rlu (Jurkat cells; 2.0 mM NaF, 25000 cells/well, 30 min) of 631.69 rlu. It also gave an Average rlu (Jurkat cells; 2.0 mM NaF, 25000 cells/well, 85 min) of 603.07 rlu, an Average rlu (Jurkat cells; 2.0 mM NaF, 25000 cells/well, 130 min) of 589.08 rlu and an Average rlu (Jurkat cells; 2.0 mM NaF, 25000 cells/well, 220 min) of 472.37 rlu. The Average rlu (Jurkat cells; 2.0 mM NaF, 25000 cells/well, 255 min) was 455.25 rlu, the Average rlu (Jurkat cells; 2.0 mM NaF, 25000 cells/well, 285 min) was 433.54 rlu and the Average rlu (Jurkat cells; 2.0 mM NaF, 50000 cells/well, 0 min) was 1340.22 rlu. For the same compound, the Average rlu (Jurkat cells; 2.0 mM NaF, 50000 cells/well, 30 min) was 1239.83 rlu, the Average rlu (Jurkat cells; 2.0 mM NaF, 50000 cells/well, 85 min) was 1156.03 rlu and the Average rlu (Jurkat cells; 2.0 mM NaF, 50000 cells/well, 130 min) was 1111.04 rlu. It also gave an Average rlu (Jurkat cells; 2.0 mM NaF, 50000 cells/well, 220 min) of 873.26 rlu, an Average rlu (Jurkat cells; 2.0 mM NaF, 50000 cells/well, 255 min) of 829.87 rlu and an Average rlu (Jurkat cells; 2.0 mM NaF, 50000 cells/well, 285 min) of 781.80 rlu. It also gave an Average rlu (Jurkat cells; 4.0 mM NaF, 12500 cells/well, 0 min) of 367.69 rlu, an Average rlu (Jurkat cells; 4.0 mM NaF, 12500 cells/well, 30 min) of 346.05 rlu and an Average rlu (Jurkat cells; 4.0 mM NaF, 12500 cells/well, 85 min) of 335.27 rlu. It also gave an Average rlu (Jurkat cells; 4.0 mM NaF, 12500 cells/well, 130 min) of 331.07 rlu, an Average rlu (Jurkat cells; 4.0 mM NaF, 12500 cells/well, 220 min) of 275.13 rlu and an Average rlu (Jurkat cells; 4.0 mM NaF, 12500 cells/well, 255 min) of 259.58 rlu. It also gave an Average rlu (Jurkat cells; 4.0 mM NaF, 12500 cells/well, 285 min) of 251.79 rlu, an Average rlu (Jurkat cells; 4.0 mM NaF, 25000 cells/well, 0 min) of 691.41 rlu and an Average rlu (Jurkat cells; 4.0 mM NaF, 25000 cells/well, 30 min) of 634.08 rlu. The Average rlu (Jurkat cells; 4.0 mM NaF, 25000 cells/well, 85 min) was 604.37 rlu, the Average rlu (Jurkat cells; 4.0 mM NaF, 25000 cells/well, 130 min) was 587.41 rlu and the Average rlu (Jurkat cells; 4.0 mM NaF, 25000 cells/well, 220 min) was 476.36 rlu. For the same compound, the Average rlu (Jurkat cells; 4.0 mM NaF, 25000 cells/well, 255 min) was 453.66 rlu, the Average rlu (Jurkat cells; 4.0 mM NaF, 25000 cells/well, 285 min) was 436.38 rlu and the Average rlu (Jurkat cells; 4.0 mM NaF, 50000 cells/well, 0 min) was 1378.13 rlu. For the same compound, the Average rlu (Jurkat cells; 4.0 mM NaF, 50000 cells/well, 30 min) was 1277.41 rlu, the Average rlu (Jurkat cells; 4.0 mM NaF, 50000 cells/well, 85 min) was 1195.56 rlu and the Average rlu (Jurkat cells; 4.0 mM NaF, 50000 cells/well, 130 min) was 1139.99 rlu. The Average rlu (Jurkat cells; 4.0 mM NaF, 50000 cells/well, 220 min) was 883.49 rlu, the Average rlu (Jurkat cells; 4.0 mM NaF, 50000 cells/well, 255 min) was 853.43 rlu and the Average rlu (Jurkat cells; 4.0 mM NaF, 50000 cells/well, 285 min) was 813.31 rlu. For the same compound, the Average rlu (Jurkat cells; 10.0 mM NaF, 12500 cells/well, 0 min) was 364.79 rlu, the Average rlu (Jurkat cells; 10.0 mM NaF, 12500 cells/well, 30 min) was 343.44 rlu and the Average rlu (Jurkat cells; 10.0 mM NaF, 12500 cells/well, 85 min) was 331.48 rlu. It also gave an Average rlu (Jurkat cells; 10.0 mM NaF, 12500 cells/well, 130 min) of 326.32 rlu, an Average rlu (Jurkat cells; 10.0 mM NaF, 12500 cells/well, 220 min) of 271.64 rlu and an Average rlu (Jurkat cells; 10.0 mM NaF, 12500 cells/well, 255 min) of 256.88 rlu. It also gave an Average rlu (Jurkat cells; 10.0 mM NaF, 12500 cells/well, 285 min) of 248.30 rlu, an Average rlu (Jurkat cells; 10.0 mM NaF, 25000 cells/well, 0 min) of 753.29 rlu and an Average rlu (Jurkat cells; 10.0 mM NaF, 25000 cells/well, 30 min) of 677.94 rlu. It also gave an Average rlu (Jurkat cells; 10.0 mM NaF, 25000 cells/well, 85 min) of 635.67 rlu, an Average rlu (Jurkat cells; 10.0 mM NaF, 25000 cells/well, 130 min) of 617.77 rlu and an Average rlu (Jurkat cells; 10.0 mM NaF, 25000 cells/well, 220 min) of 496.08 rlu. The Average rlu (Jurkat cells; 10.0 mM NaF, 25000 cells/well, 255 min) was 471.66 rlu, the Average rlu (Jurkat cells; 10.0 mM NaF, 25000 cells/well, 285 min) was 450.76 rlu and the Average rlu (Jurkat cells; 10.0 mM NaF, 50000 cells/well, 0 min) was 1442.08 rlu. The Average rlu (Jurkat cells; 10.0 mM NaF, 50000 cells/well, 30 min) was 1324.67 rlu, the Average rlu (Jurkat cells; 10.0 mM NaF, 50000 cells/well, 85 min) was 1235.80 rlu and the Average rlu (Jurkat cells; 10.0 mM NaF, 50000 cells/well, 130 min) was 1181.84 rlu. The Average rlu (Jurkat cells; 10.0 mM NaF, 50000 cells/well, 220 min) was 903.44 rlu, the Average rlu (Jurkat cells; 10.0 mM NaF, 50000 cells/well, 255 min) was 870.95 rlu and the Average rlu (Jurkat cells; 10.0 mM NaF, 50000 cells/well, 285 min) was 826.48 rlu. The Average rlu (Jurkat cells; 10.0 mM NaF, without KPO4, 12500 cells/well, 0 min) was 409.57 rlu, the Average rlu (Jurkat cells; 10.0 mM NaF, without KPO4, 12500 cells/well, 30 min) was 400.10 rlu and the Average rlu (Jurkat cells; 10.0 mM NaF, without KPO4, 12500 cells/well, 85 min) was 384.84 rlu. For the same compound, the Average rlu (Jurkat cells; 10.0 mM NaF, without KPO4, 12500 cells/well, 130 min) was 371.42 rlu, the Average rlu (Jurkat cells; 10.0 mM NaF, without KPO4, 12500 cells/well, 220 min) was 294.12 rlu and the Average rlu (Jurkat cells; 10.0 mM NaF, without KPO4, 12500 cells/well, 255 min) was 283.01 rlu. For the same compound, the Average rlu (Jurkat cells; 10.0 mM NaF, without KPO4, 12500 cells/well, 285 min) was 267.78 rlu, the Average rlu (Jurkat cells; 10.0 mM NaF, without KPO4, 25000 cells/well, 0 min) was 806.87 rlu and the Average rlu (Jurkat cells; 10.0 mM NaF, without KPO4, 25000 cells/well, 30 min) was 785.16 rlu. It also gave an Average rlu (Jurkat cells; 10.0 mM NaF, without KPO4, 25000 cells/well, 85 min) of 734.44 rlu, an Average rlu (Jurkat cells; 10.0 mM NaF, without KPO4, 25000 cells/well, 130 min) of 692.57 rlu and an Average rlu (Jurkat cells; 10.0 mM NaF, without KPO4, 25000 cells/well, 220 min) of 516.69 rlu. It also gave an Average rlu (Jurkat cells; 10.0 mM NaF, without KPO4, 25000 cells/well, 255 min) of 498.99 rlu, an Average rlu (Jurkat cells; 10.0 mM NaF, without KPO4, 25000 cells/well, 285 min) of 468.90 rlu and an Average rlu (Jurkat cells; 10.0 mM NaF, without KPO4, 50000 cells/well, 0 min) of 1514.80 rlu. For the same compound, the Average rlu (Jurkat cells; 10.0 mM NaF, without KPO4, 50000 cells/well, 30 min) was 1449.30 rlu and the “effect on the luminescence increase seen with Jurkat cells” value (Jurkat cells; NaF added to reagent composition) was “can inhibit the luminescence increase”.
With C[C@H](CCC(=O)[O-])[C@H]1CC[C@H]2[C@@H]3CC[C@@H]4C[C@H](O)CC[C@]4(C)[C@H]3C[C@H](O)[C@]12C.[Na+] [Deoxycholate, sodium deoxycholate] the “precipitation in the samples” value ([1]; 0.1% deoxycholate) was “slight precipitation” and the “precipitation in the samples” value ([1]; 0.5% deoxycholate) was “substantial precipitation”.
